In patent US11191820B2, “Method for inducing early T memory response with short peptides anti-tumor vaccine” (OSE IMMUNOTHERAPEUTICS, priority 2015, dated 2021):
Marks after values point to notes of the source that are not given here.

Tests used:
Type in all cases: in vivo, human
central memory T cells [1] = test: Cultured IFN-γ ELISPOT after 10-day in vitro stimulation of PBMC, phase 1/2 colon cancer trial of OSE-2101; set-up: key to net SFC of vaccine positive CTL responses: —, indicates SFC response did not meet criteria and vaccine response was negative; settings: for Mean SFC: 10 colon patients
Procedure: (§1) Clinical study design. Both trials were designed as phase 1/2, open label, multi-center, single dose, multiple administration studies to evaluate the safety and immunogenicity of the OSE-2101 immunotherapy. Patients were treated with 1 ml OSE-2101 every 3 weeks for a total of six doses. Each dose was administered subcutaneously in the same vicinity in the deltoid or upper thigh region, or at a contralateral site if local side-effects were observed. The study duration for each completed patient was 18 weeks. Clinical responses or patient survival were not measured in either phase 1/2 studies.
(§2) Clinical sample processing. Blood or leukapheresis product was obtained from patients at the pre-treatment, the Week 9 and Week 18 time points, 3 weeks after the third and sixth dose of OSE-2101 respectively. Peripheral blood mononuclear cells (PBMC) were isolated from samples within 24 hours of collection using a FICOLL-PAQUE density gradient and cryopreserved in containers designed to ensure optimal freezing (Mr. Frosty, Nalgene). For use, cells were rapidly thawed at 37° C. then transferred to human AB serum-containing medium for work-up.
(§3) Measurement of central T memory cells responses and T effector memory cells. The CTL responses in 16 total patients (10 colon and six NSCLC) were monitored for CTL responses against each epitope and against the wild-type epitope of epitopes analogs. For each patient, the pre-treatment, Week 9 and Week 18 time points were batch-tested in the same experiment to allow pre- versus post-treatment response comparison in the same experiment. Central T memory cells responses were measured using an IFN-γ enzyme-linked immunospot (cultured ELISPOT) assay following in vitro stimulation of PBMC for 10 days with each vaccine epitope. Briefly, PBMC from each time point were stimulated on day 0 with 10 μg/ml of each epitope individually in replicate in 48-well culture plates (2×10^6 PBMC/well). All cultures were fed with rIL-2 (Endogen, Woburn, Mass.; 10 U/ml final concentration) on days 1, 4 and 7. Ten days after initiation of culture, cells were harvested and tested for activity against specific vaccine peptides and corresponding wild-type peptides of vaccine analogs in the T memory ELISPOT assay. Cells were tested in Millipore IP 96-well plates pre-coated with mouse anti-human IFN-γ antibody (Mabtech USA, Cincinnati, Ohio). Five×10^4 cells and 1.25×10^4 cells from each culture were plated in triplicate wells together with 10^5 irradiated autologous PBMC and 10 μg/ml peptide. As a control, CTL were also tested against an irrelevant HLA-A2.1-binding HBV peptide. After 20 hours incubation, T memory ELISPOT plates were developed by performing sequential incubations with biotinylated anti-human IFN-γ antibody (Mabtech USA), Avidin-Peroxidase Complex (APC, Vector Laboratories, Burlingame, Calif.), and 3-amino-9-ethyl carbazole (AEC) substrate (Sigma Aldrich, St. Louis, Mo.). Spot-forming cells (SFC) were enumerated using a computer-assisted image analysis system (Zeiss KS ELISPOT Reader, Carl Zeiss MicroImaging, Thornwood, N.J.). Data is reported as the net SFC per 5×10^4 cells after subtracting spots induced with the irrelevant HBV peptide.

central memory T cells [2] = test: Cultured IFN-γ ELISPOT after 10-day in vitro stimulation of PBMC, phase 1/2 NSCLC trial of OSE-2101; set-up: key to net SFC of vaccine positive CTL responses: —, indicates SFC response did not meet criteria and vaccine response was negative
Procedure: as §1, §2, §3

central memory T cells [3] = test: Central memory T cell cultured ELISPOT, phase 2 trial in advanced NSCLC
Procedure: CTL Immune responses measured though cultured Elispot. The immunogenicity was measured in Phase 2 clinical trial on cryopreserved PBMC from each test sample were thawed in 5% human culture medium (RPMI-1640 medium with 25 mM HEPES, supplemented with 5% human AB serum, 4 mM L-glutamine, 0.5 mM sodium pyruvate, 0.1 mM MEM non-essential amino acids, 100 μg/ml streptomycin, and 100 U/ml penicillin) containing 30 μg/ml DNAase. After centrifugation for 5 minutes at 1200 rpm, the cell pellets were resuspended in 5% human culture medium and washed 2 times. For the central Memory T cell cultured ELISPOT assay, 2×10^6/ml PBMC were placed in replicate wells in a 48-well plates and stimulated for 10 days with 10 μg/ml of each peptide. As a positive control, PBMC were also stimulated with a pool of recall viral peptides. Human rIL2 (10 U/ml) was added to the peptide-stimulated cultures at day 1, day 4 and day 7. After 10 days the stimulated cells were harvested and plated at a concentration of 5×10^4/well. Assay wells also received irradiated autologous PBMC (1×10^5/well) and 10 μg/ml peptide, either the vaccine peptide, irrelevant peptide or positive control peptides. Cells stimulated in vitro with each analog epitope were also tested against the corresponding wild-type epitope.
Data analysis and acceptance criteria. Mean and standard deviation (SD) of spots in replicate wells were calculated in all assays by transferring raw ELISPOT data from each experiment to an Excel-based computer program. Positive vaccine-induced T-cell responses were determined according to the criteria described below.
Acceptance Criteria for peptide-Induced specific T-cell response through central memory T cells: The positive criteria for CTL responses used in the phase 2 trial was identical to the criteria in the phase 1/2 trials which was established prospectively after analyzing the variability of pre-treatment responses in patients against each vaccine epitope and the irrelevant HBV control epitope. A positive peptide-induced CTL/T memory response to a given epitope met all of the following conditions: 1) was greater than 5 SFC above the irrelevant epitope response, 2) was greater than the mean SFC of the irrelevant epitope response, plus 2 SD, and 3) was two-fold greater than the SFC response in the pre-vaccination sample from the same patient, plus 2 SD. The inclusion of “plus two standard deviations” was used to accommodate the assay variability and served to increase the criteria stringency.

Sequence: LLTFWNPPV [CEA.24V9 A]
- Mean SFC (central memory T cells [1]; Week 9): 86.5 SFC per 50,000 cells
- Mean SFC (central memory T cells [1]; Week 18): 172.0 SFC per 50,000 cells
- net SFC of vaccine positive CTL responses (central memory T cells [1]; colon patient 551, Week 9): 42.7^d) SFC per 50,000 cells
- net SFC of vaccine positive CTL responses (central memory T cells [1]; colon patient 551, Week 18): —
- net SFC of vaccine positive CTL responses (central memory T cells [1]; colon patient 601, Week 9): 118.0 SFC per 50,000 cells
- net SFC of vaccine positive CTL responses (central memory T cells [1]; colon patient 601, Week 18): 96.0 SFC per 50,000 cells
- net SFC of vaccine positive CTL responses (central memory T cells [1]; colon patient 602, Week 9): —
- net SFC of vaccine positive CTL responses (central memory T cells [1]; colon patient 602, Week 18): —
- net SFC of vaccine positive CTL responses (central memory T cells [1]; colon patient 603, Week 9): 63.0 SFC per 50,000 cells
- net SFC of vaccine positive CTL responses (central memory T cells [1]; colon patient 603, Week 18): 20.7 SFC per 50,000 cells
- net SFC of vaccine positive CTL responses (central memory T cells [1]; colon patient 604, Week 9): 55.3 SFC per 50,000 cells
- net SFC of vaccine positive CTL responses (central memory T cells [1]; colon patient 604, Week 18): 187.0 SFC per 50,000 cells
- net SFC of vaccine positive CTL responses (central memory T cells [1]; colon patient 605, Week 9): 43.7 SFC per 50,000 cells
- net SFC of vaccine positive CTL responses (central memory T cells [1]; colon patient 605, Week 18): 109.7 SFC per 50,000 cells
- net SFC of vaccine positive CTL responses (central memory T cells [1]; colon patient 606, Week 9): —
- net SFC of vaccine positive CTL responses (central memory T cells [1]; colon patient 606, Week 18): —
- net SFC of vaccine positive CTL responses (central memory T cells [1]; colon patient 607, Week 9): 196.7 SFC per 50,000 cells
- net SFC of vaccine positive CTL responses (central memory T cells [1]; colon patient 607, Week 18): 586.7 SFC per 50,000 cells
- net SFC of vaccine positive CTL responses (central memory T cells [1]; colon patient 608, Week 9): —
- net SFC of vaccine positive CTL responses (central memory T cells [1]; colon patient 608, Week 18): —
- net SFC of vaccine positive CTL responses (central memory T cells [1]; colon patient 609, Week 9): —
- net SFC of vaccine positive CTL responses (central memory T cells [1]; colon patient 609, Week 18): 31.7 SFC per 50,000 cells
- No. Positive Responses (central memory T cells [2]; 6 NSCLC patients, Week 9): 0
- Mean SFC (central memory T cells [2]; 6 NSCLC patients, Week 18): 34.3 SFC per 50,000 cells
- No. Positive Responses (central memory T cells [2]; 6 NSCLC patients, Week 18): 2
- net SFC of vaccine positive CTL responses (central memory T cells [2]; NSCLC patient 201, Week 9): —
- net SFC of vaccine positive CTL responses (central memory T cells [2]; NSCLC patient 201, Week 18): —
- net SFC of vaccine positive CTL responses (central memory T cells [2]; NSCLC patient 502, Week 9): —
- net SFC of vaccine positive CTL responses (central memory T cells [2]; NSCLC patient 502, Week 18): —
- net SFC of vaccine positive CTL responses (central memory T cells [2]; NSCLC patient 504, Week 9): —
- net SFC of vaccine positive CTL responses (central memory T cells [2]; NSCLC patient 504, Week 18): 25.3^d) SFC per 50,000 cells
- net SFC of vaccine positive CTL responses (central memory T cells [2]; NSCLC patient 505, Week 9): —
- net SFC of vaccine positive CTL responses (central memory T cells [2]; NSCLC patient 505, Week 18): —
- net SFC of vaccine positive CTL responses (central memory T cells [2]; NSCLC patient 532, Week 9): —
- net SFC of vaccine positive CTL responses (central memory T cells [2]; NSCLC patient 532, Week 18): 43.3 SFC per 50,000 cells
- net SFC of vaccine positive CTL responses (central memory T cells [2]; NSCLC patient 651, Week 9): —
- net SFC of vaccine positive CTL responses (central memory T cells [2]; NSCLC patient 651, Week 18): —
- % of patients with positive CTL/central memory T cell response (central memory T cells [3]; phase 2, month 9): 57%
- patients with positive CTL/central memory T cell response / patients tested (central memory T cells [3]; phase 2, month 9): 4/7
- % of patients with positive CTL/central memory T cell response (central memory T cells [3]; phase 2, month 12): 50%
- patients with positive CTL/central memory T cell response / patients tested (central memory T cells [3]; phase 2, month 12): 2/4
- % of patients with positive CTL/central memory T cell response (central memory T cells [3]; phase 2, week 9): 39%
- patients with positive CTL/central memory T cell response / patients tested (central memory T cells [3]; phase 2, week 9): 13/33
- % of patients with positive CTL/central memory T cell response (central memory T cells [3]; phase 2, week 18): 31%
- patients with positive CTL/central memory T cell response / patients tested (central memory T cells [3]; phase 2, week 18): 10/32
- % of patients with positive CTL/central memory T cell response (central memory T cells [3]; phase 2, week 30): 28%
- patients with positive CTL/central memory T cell response / patients tested (central memory T cells [3]; phase 2, week 30): 9/23
